# Measurements reported in patent US8183279B2, “1,3-dihydroisoindole derivatives” (Merck Patent Gesellschaft Mit Beschrankter Haftung, priority 2007, dated 2012).
# Target: T1, Recombinant human HSP90α (Homo sapiens, UniProt P07900)
# T1 construct: host or cells: E. coli
# Assay: HSP90 inhibition, [3H]17AAG radioligand filter binding test
# Settings: competition with 0.08 μM [3H]17AAG, HSP90 1.5 μg/assay, 22° C., 30 min
# Description: The binding of geldanamycin or 17-allylamino-17-demethoxygeldanamycin (17AAG) to HSP90 and competitive inhibition thereof can be utilised in order to determine the inhibitory activity of the compounds according to the invention (Carreras et al. 2003, Chiosis et al. 2002).
# In the specific case, a radioligand filter binding test is used. The radioligand used here is tritium-labelled 17-allylaminogeldanamycin,
# [3H]17AAG. This filter binding test allows a targeted search for inhibitors which interfere with the ATP binding site.
# Recombinant human HSP90α(E. coli expressed, 95% purity);
# [3H]17AAG (17-allylaminogeldanamycin, [allylamino-2,3-^3H. Specific activity: 1.11×10^12 Bq/mmol (Moravek, MT-1717);
# HEPES filter buffer (50 mM HEPES, pH 7.0, 5 mM MgCl2, BSA 0.01%) Multiscreen FB (1 μm) filter plate (Millipore, MAFBNOB 50).
# The 96-well microtitre filter plates are firstly irrigated and coated with 0.1% of polyethylenimine.
# The test is carried out under the following conditions:
# Reaction temperature 22° C.
# Reaction time: 30 min., shaking at 800 rpm
# 50 mM HEPES HCl, pH 7.0, 5 mM MgCl2, 0.01% (w/v) of BSA
# At the end of the reaction, the supernatant in the filter plate is removed by suction with the aid of a vacuum manifold (Multiscreen Separation System, Millipore), and the filter is washed twice.
# The filter plates are then measured in a beta counter (Microbeta, Wallac) with scintillator (Microscint 20, Packard).
# “% of control” is determined from the “counts per minutes” values, and the IC-50 value of a compound is calculated therefrom.
row,SMILES,IC50 [nM]
1,CCCCN(C)C(=O)c1cc(C(=O)N2Cc3ccc(OCCN4CCOCC4)cc3C2)c(O)cc1O [Compound A6],10 to 1000
2,"CNCCOc1ccc2c(c1)CN(C(=O)c1cc(C(=O)N(C)Cc3ccco3)c(O)cc1O)C2 [Compound A49, N-Furan-2-ylmethyl-2,4-dihydroxy-N-methyl-5-[5-(2-methylaminoethoxy)-1,3-dihydroisoindole-2-carbonyl]benzamide]",10 to 1000
3,"CCCCN(C)C(=O)c1cc(C(=O)N2Cc3ccc(C(=O)OC)cc3C2)c(O)cc1O [Compound A39, Methyl 2-[5-(butylmethylcarbamoyl)-2,4-dihydroxybenzoyl]-2,3-dihydro-1H-isoindole-5-carboxylate]",10 to 1000
4,"CN(C)CCOc1ccc2c(c1)CN(C(=O)c1cc(C(=O)N(C)Cc3ccco3)c(O)cc1O)C2 [Compound A44, 5-[5-(2-Dimethylaminoethoxy)-1,3-dihydroisoindole-2-carbonyl]-N-furan-2-ylmethyl-2,4-dihydroxy-N-methylbenzamide]",10 to 1000
5,"CN(C)CCOc1ccc2c(c1)CN(C(=O)c1cc(C(=O)N(C)Cc3ccccc3)c(O)cc1O)C2 [Compound A45, N-Benzyl-5-[5-(2-dimethylaminoethoxy)-1,3-dihydroisoindole-2-carbonyl]-2,4-dihydroxy-N-methylbenzamide]",10 to 1000
6,"CN(C)CCOc1ccc2c(c1)CN(C(=O)c1cc(C(=O)N3Cc4ccccc4C3)c(O)cc1O)C2 [Compound A46, [5-(1,3-Dihydroisoindole-2-carbonyl)-2,4-dihydroxyphenyl]-[5-(2-dimethylaminoethoxy)-1,3-dihydroisoindol-2-yl]methanone]",10 to 1000
7,"Cc1ccc(CN(C)C(=O)c2cc(C(=O)N3Cc4ccc(OCCN(C)C)cc4C3)c(O)cc2O)s1 [Compound A43, 5-[5-(2-Dimethylaminoethoxy)-1,3-dihydroisoindole-2-carbonyl]-2,4-dihydroxy-N-methyl-N-(5-methylthiophen-2-ylmethyl)benzamide]",10 to 1000
8,CCCCN(C)C(=O)c1cc(C(=O)N2Cc3ccc(C(N)=O)cc3C2)c(O)cc1O [Compound A42],10 to 1000
9,CCCCN(C)C(=O)c1cc(C(=O)N2Cc3ccc(OCCN4CCNCC4)cc3C2)c(O)cc1O [Compound A7],10 to 1000
10,"CCCCN(C)C(=O)c1cc(C(=O)N2Cc3ccc(C(=O)N(C)C)cc3C2)c(O)cc1O [Compound A41, N,N'-Dimethyl-2-[5-(butylmethylcarbamoyl)-2,4-dihydroxybenzoyl]-2,3-dihydro-1H-isoindole-5-carboxamide]",10 to 1000
11,CCCCN(C)C(=O)c1cc(C(=O)N2Cc3ccc(OCCN4CCCCC4)cc3C2)c(O)cc1O [Compound A8],10 to 1000
12,"CCCCN(C)C(=O)c1cc(C(=O)N2Cc3ccc(-c4ccccc4)cc3C2)c(O)cc1O [Compound A38, N-Butyl-2,4-dihydroxy-N-methyl-5-(5-phenyl-1,3-dihydroisoindole-2-carbonyl)benzamide]",10 to 1000
13,"CCCCN(C)C(=O)c1cc(C(=O)N2Cc3ccccc3C2)c(O)cc1O [Compound A2, N-butyl-2,4-dihydroxy-5-(1,3-dihydroisoindole-2-carbonyl)-N-methylbenzamide]",10 to 1000
14,"CNCCOc1ccc2c(c1)CN(C(=O)c1cc(C(=O)N(C)Cc3ccc(C)s3)c(O)cc1O)C2 [Compound A48, 2,4-Dihydroxy-N-methyl-5-[5-(2-methylaminoethoxy)-1,3-dihydroisoindole-2-carbonyl]-N-(5-methylthiophen-2-ylmethyl)benzamide]",10 to 1000

# Second part, the compound after the results:
row,IC50 [nM],SMILES
1,10 to 1000,"CCCCN(C)C(=O)c1cc(C(=O)N2Cc3ccc(OCCN(C)CC)cc3C2)c(O)cc1O [Compound A40, N-Butyl-5-{5-[2-(ethylmethylamino)ethoxy]-1,3-dihydroisoindole-2-carbonyl}-2,4-dihydroxy-N-methylbenzamide]"
2,10 to 1000,"CCCCN(C)C(=O)c1cc(C(=O)N2Cc3ccc(OCCO)cc3C2)c(O)cc1O [Compound A34, N-Butyl-2,4-dihydroxy-5-[5-(2-hydroxyethoxy)-1,3-dihydroisoindole-2-carbonyl]-N-methylbenzamide]"
3,10 to 1000,"CCCCN(C)C(=O)c1cc(C(=O)N2Cc3ccc(OCCNC)cc3C2)c(O)cc1O [Compound A35, N-Butyl-2,4-dihydroxy-N-methyl-5-[5-(2-methylaminoethoxy)-1,3-dihydroisoindole-2-carbonyl]benzamide]"
4,10 to 1000,"CCCCN(C)C(=O)c1cc(C(=O)N2Cc3ccc(OCC(N)=O)cc3C2)c(O)cc1O [Compound A32, N-Butyl-5-(5-carbamoylmethoxy-1,3-dihydroisoindole-2-carbonyl)-2,4-dihydroxy-N-methylbenzamide]"
5,10 to 1000,"CCCCN(C)C(=O)c1cc(C(=O)N2Cc3ccc(OCCCNC)cc3C2)c(O)cc1O [Compound A47, N-Butyl-2,4-dihydroxy-N-methyl-5-[5-(3-methylaminopropoxy)-1,3-dihydroisoindole-2-carbonyl]benzamide]"
6,10 to 1000,"CCCCN(C)C(=O)c1cc(C(=O)N2Cc3ccc(OCCCC#N)cc3C2)c(O)cc1O [Compound A33, N-Butyl-5-[5-(3-cyanopropoxy)-1,3-dihydroisoindole-2-carbonyl]-2,4-dihydroxy-N-methylbenzamide]"
7,10 to 1000,"CCCCN(C)C(=O)c1cc(C(=O)N2Cc3ccc(OCCN(C)C)cc3C2)c(O)cc1O [Compound A3, N-butyl-5-[5-(2-dimethylaminoethoxy)-1,3-dihydroisoindole-2-carbonyl]-2,4-dihydroxy-N-methylbenzamide]"
8,10 to 1000,"CCCCN(C)C(=O)c1cc(C(=O)N2Cc3ccc(O)cc3C2)c(O)cc1O [Compound A1, N-butyl-2,4-dihydroxy-5-(5-hydroxy-1,3-dihydroisoindole-2-carbonyl)-N-methylbenzamide]"
